What is called IC50 is the point on the concentration scale where inhibition reaches its midpoint. A high value points to weaker potency.

The record followed here is US20220395553A1, “CXCR4 ANTAGONIST PEPTIDES” (COHBAR, INC., priority 2019, published 2022).

SMILES strings stand for the structures. Square brackets hold non-standard residues; d marks the D form. Peptide text beside a SMILES is read from it.

Test [1] has as its target T1, human CXCR4 (Homo sapiens, UniProt P61073). The test is described as follows: IC50 for inhibition of CXCR4 activation, β-Arrestin recruitment (Example 22). The format is cell-based. The arrangement: host or cells: C2C12 (mouse myoblast) CXCR4 β-Arrestin PathHunter cell line. The procedure:
The assay was run with the DiscoverX protocol. β-Arrestin recruitment assays were performed by Eurofins-DiscoverX (Fremont, Calif.) using C2C12 CXCR4 β-Arrestin cell line (co-expressing ProLink tagged human CXCR4 and Enzyme Acceptor tagged β-Arrestin) and PathHunter detection kit. Peptides were initially prepared as 1 mM stock in H2O and tested in ten (10)-step concentration response curves using 3-fold dilution steps with 1 μM as highest concentration; a concentration range of 1 μM-0.05 nM was tested. C2C12 CXCR4 β-Arrestin cells were seed onto 384-well plates in standard medium. […] At the end of the 90 min incubation period, β-Arrestin recruitment in response to various treatments was quantified using a chemiluminescent complementation reporter assay to measure association of tagged human […] (ProLink tag) and tagged β-Arrestin (Enzyme Acceptor tag).

For test [2], the target named is T1, human CXCR4. The test is described as follows: CXCR4/CXCL12 binding, HTRF format, single concentration (Example 23). The arrangement: host or cells: HEK293 (Tag-lite CXCR4 cells, frozen aliquots, transient expression). The following applies: 15 nM CXCR4R fluorescent probe, 3 hours, HEK293 Tag-lite CXCR4 cells. The procedure:
Peptides were initially prepared as 1 mM stock in H2O and tested at a final concentration of 400 nM. Following the manufacture's protocol, a frozen aliquot of Tag-lite CXCR4 cells was thawed and immediately seeded onto 384-well plates in TLB. Immediately following the addition of cells, 400 nM peptide (final concentration) in TLB was added to the appropriate well. Then 15 nM (final concentration; EC80) of CXCR4R fluorescent probe was added to each well to initiate the HTRF assay. The plates were covered in aluminum foil and left at room temperature for 3 hours. Following the 3 hour incubation period, the plates were removed from the incubator and fluorescence measured using a Cytation 1 plate reader using a HTRF filter cube ([…]; BioTek; Winooski, Vt.). According manufacture's instruction data reduction was performed by calculating the ratio of 665 nm signal (TRF of 665 nm excitation by 620 emission; amount of CXCR4R fluorescent probe bound to terbium labeled CXCR receptor)/620 nm signal (620 excitation by 330 nm light source; normalization factor for amount of terbium labeled CXCR4 receptor in well)×10,000.
Background: Time-resolved FRET reads energy transfer from a long-lived donor to a nearby acceptor.

T1 sequence (P61073 whole entry): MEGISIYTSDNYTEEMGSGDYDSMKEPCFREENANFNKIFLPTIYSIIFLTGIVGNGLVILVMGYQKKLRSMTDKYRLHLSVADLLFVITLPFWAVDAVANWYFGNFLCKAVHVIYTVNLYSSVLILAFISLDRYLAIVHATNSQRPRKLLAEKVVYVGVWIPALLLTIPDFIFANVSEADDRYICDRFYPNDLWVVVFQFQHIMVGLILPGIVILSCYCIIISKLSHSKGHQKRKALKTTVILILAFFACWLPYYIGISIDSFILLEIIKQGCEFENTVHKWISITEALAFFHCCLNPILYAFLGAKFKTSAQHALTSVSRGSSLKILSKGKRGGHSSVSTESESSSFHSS

`CC(C)C[C@H](NC(=O)[C@H](CO)NC(=O)[C@H](CO)NC(=O)[C@H](CCCNC(=N)N)NC(=O)[C@@H](C)NC(=O)[C@H](CO)NC(=O)[C@H](CCC(N)=O)NC(=O)[C@H](Cc1c[nH]cn1)NC(=O)[C@H](Cc1ccc(O)cc1)NC(=O)[C@H](CCCNC(=N)N)NC(=O)[C@H](CCC(=O)O)NC(=O)[C@@H](N)CC(C)C)C(=O)N[C@@H](CCCNC(=N)N)C(=O)N1CCC[C@H]1C(=O)N[C@@H](Cc1ccc(O)cc1)C(=O)N[C@H](C(=O)N[C@@H](CCCCN)C(=O)O)[C@@H](C)O` [compound 52] (H-LERYHQS[dA]RSSLRPYTK-OH; N-terminus and C-terminus assumed) displayed an IC50 in test [1] of 121 nM. Also, the “Percent Inhibition of CXCR4/CXCL12 Binding (400 nM peptide)” value in test [2] is listed as −2%.

As to `CC(C)C[C@H](NC(=O)[C@H](CO)NC(=O)[C@H](CO)NC(=O)[C@H](CCCNC(=N)N)NC(=O)[C@@H](NC(=O)[C@H](CO)NC(=O)[C@H](Cc1c[nH]cn1)NC(=O)[C@H](Cc1c[nH]cn1)NC(=O)[C@H](Cc1ccc(O)cc1)NC(=O)[C@H](CCCNC(=N)N)NC(=O)[C@H](CCCNC(=N)N)NC(=O)[C@@H](N)CC(C)C)C(C)C)C(=O)N[C@@H](CCC(=O)O)C(=O)N1CCC[C@H]1C(=O)N[C@@H](Cc1ccc(O)cc1)C(=O)N[C@H](C(=O)N[C@@H](CCCCN)C(=O)O)[C@@H](C)O` [compound 63] (H-LRRYHHSVRSSLEPYTK-OH; N-terminus and C-terminus assumed), the IC50 in test [1] was determined as 14 nM. Besides, the “Percent Inhibition of CXCR4/CXCL12 Binding (400 nM peptide)” value in test [2] is 9%.

`CC(C)C[C@H](NC(=O)[C@H](CO)NC(=O)[C@H](CO)NC(=O)[C@H](CCCNC(=N)N)NC(=O)[C@@H](NC(=O)[C@H](CO)NC(=O)[C@H](CCC(N)=O)NC(=O)[C@H](Cc1c[nH]cn1)NC(=O)[C@H](Cc1ccc(O)cc1)NC(=O)[C@H](CCCNC(=N)N)NC(=O)[C@H](CCCNC(=N)N)NC(=O)[C@@H](N)CC(C)C)C(C)C)C(=O)N[C@@H](CCCNC(=N)N)C(=O)N1CCC[C@H]1C(=O)N[C@@H](Cc1ccc(O)cc1)C(=O)N[C@H](C(=O)N[C@@H](CCCCN)C(=O)O)[C@@H](C)O` [compound 50] (H-LRRYHQSVRSSLRPYTK-OH; N-terminus and C-terminus assumed) showed an IC50 in test [1] of 121 nM. Also, in test [2], the “Percent Inhibition of CXCR4/CXCL12 Binding (400 nM peptide)” value was −5%.

Regarding `CC(C)C[C@H](NC(=O)[C@H](CO)NC(=O)[C@H](CO)NC(=O)[C@H](CCCNC(=N)N)NC(=O)[C@@H](NC(=O)[C@H](CO)NC(=O)[C@H](Cc1c[nH]cn1)NC(=O)[C@H](CC(N)=O)NC(=O)[C@H](Cc1ccc(O)cc1)NC(=O)[C@H](CCCNC(=N)N)NC(=O)[C@H](CCCNC(=N)N)NC(=O)[C@@H](N)CC(C)C)C(C)C)C(=O)N[C@@H](CCCNC(=N)N)C(=O)N1CCC[C@H]1C(=O)N[C@@H](Cc1ccc(O)cc1)C(=O)N[C@H](C(=O)N[C@@H](CCCCN)C(=O)O)[C@@H](C)O` [compound 41] (H-LRRYNHSVRSSLRPYTK-OH; N-terminus and C-terminus assumed), in test [1], the IC50 came out at 4 nM. Further, in test [2], the “Percent Inhibition of CXCR4/CXCL12 Binding (400 nM peptide)” value is on record as −2%.

Consider `CC(C)C[C@H](NC(=O)[C@H](CO)NC(=O)[C@H](CO)NC(=O)[C@H](CCCNC(=N)N)NC(=O)[C@@H](NC(=O)[C@H](CO)NC(=O)[C@H](Cc1c[nH]cn1)NC(=O)[C@H](Cc1c[nH]cn1)NC(=O)[C@H](Cc1ccc(O)cc1)NC(=O)[C@H](CCCNC(=N)N)NC(=O)[C@H](CCCNC(=N)N)NC(=O)[C@@H](N)CC(C)C)C(C)C)C(=O)O` [compound 28] (H-LRRYHHSVRSSL-OH; N-terminus and C-terminus assumed), for which the midpoint of inhibition in test [1], the IC50, lay at 4 nM. Further, the “Percent Inhibition of CXCR4/CXCL12 Binding (400 nM peptide)” value in test [2] is recorded as 12%.

As for `CC(C)C[C@H](NC(=O)[C@H](CO)NC(=O)[C@H](CO)NC(=O)[C@H](CCCNC(=N)N)NC(=O)[C@@H](C)NC(=O)[C@H](CO)NC(=O)[C@H](Cc1c[nH]cn1)NC(=O)[C@H](Cc1c[nH]cn1)NC(=O)[C@H](Cc1ccc(O)cc1)NC(=O)[C@H](CCCNC(=N)N)NC(=O)[C@H](CCCNC(=N)N)NC(=O)[C@@H](N)CC(C)C)C(=O)N[C@@H](CCCNC(=N)N)C(=O)N1CCC[C@H]1C(=O)N[C@@H](Cc1ccc(O)cc1)C(=O)N[C@H](C(=O)N[C@@H](CCCCN)C(=O)O)[C@@H](C)O` [compound 6] (H-LRRYHHS[dA]RSSLRPYTK-OH; N-terminus and C-terminus assumed), the IC50 in test [1] came to 8 nM. Also, the “Percent Inhibition of CXCR4/CXCL12 Binding (400 nM peptide)” value in test [2] was −10%.

For the compound `CC(C)C[C@H](NC(=O)[C@H](CO)NC(=O)[C@H](CO)NC(=O)[C@H](CCCNC(=N)N)NC(=O)[C@@H](NC(=O)[C@H](CO)NC(=O)[C@H](CC(N)=O)NC(=O)[C@H](Cc1c[nH]cn1)NC(=O)[C@H](Cc1ccc(O)cc1)NC(=O)[C@H](CCCNC(=N)N)NC(=O)[C@H](CCC(=O)O)NC(=O)[C@@H](N)CC(C)C)C(C)C)C(=O)N[C@@H](CCCNC(=N)N)C(=O)N1CCC[C@H]1C(=O)N[C@@H](Cc1ccc(O)cc1)C(=O)N[C@H](C(=O)N[C@@H](CCCCN)C(=O)O)[C@@H](C)O` [compound 45] (H-LERYHNSVRSSLRPYTK-OH; N-terminus and C-terminus assumed), in test [1], the IC50 amounted to 121 nM. For the same compound, the “Percent Inhibition of CXCR4/CXCL12 Binding (400 nM peptide)” value in test [2] worked out at 1%.

Regarding `CC(C)C[C@H](NC(=O)[C@H](CO)NC(=O)[C@H](CO)NC(=O)[C@H](CCC(=O)O)NC(=O)[C@@H](C)NC(=O)[C@H](CO)NC(=O)[C@H](Cc1c[nH]cn1)NC(=O)[C@H](Cc1c[nH]cn1)NC(=O)[C@H](Cc1ccc(O)cc1)NC(=O)[C@H](CCCNC(=N)N)NC(=O)[C@H](CCCNC(=N)N)NC(=O)[C@@H](N)CC(C)C)C(=O)N[C@@H](CCCNC(=N)N)C(=O)N1CCC[C@H]1C(=O)N[C@@H](Cc1ccc(O)cc1)C(=O)N[C@H](C(=O)N[C@@H](CCCCN)C(=O)O)[C@@H](C)O` [compound 64] (H-LRRYHHS[dA]ESSLRPYTK-OH; N-terminus and C-terminus assumed), the IC50 in test [1] was determined as 14 nM. Also, the “Percent Inhibition of CXCR4/CXCL12 Binding (400 nM peptide)” value in test [2] was −6%.

In test [1], `CC(C)C[C@H](NC(=O)[C@H](CO)NC(=O)[C@H](CO)NC(=O)[C@H](CCCNC(=N)N)NC(=O)[C@@H](NC(=O)[C@H](CO)NC(=O)[C@H](Cc1c[nH]cn1)NC(=O)[C@H](Cc1c[nH]cn1)NC(=O)[C@H](Cc1ccc(O)cc1)NC(=O)[C@@H](N)CCCNC(=N)N)C(C)C)C(=O)N[C@@H](CCCNC(=N)N)C(=O)N1CCC[C@H]1C(=O)N[C@@H](Cc1ccc(O)cc1)C(=O)N[C@H](C(=O)N[C@@H](CCCCN)C(=O)O)[C@@H](C)O` [compound 11] (H-RYHHSVRSSLRPYTK-OH; N-terminus and C-terminus assumed) registered an IC50 of 175 nM. Moreover, the “Percent Inhibition of CXCR4/CXCL12 Binding (400 nM peptide)” value in test [2] was −9%.

As for `CC(C)C[C@H](NC(=O)[C@H](CO)NC(=O)[C@H](CO)NC(=O)[C@H](CCCNC(=N)N)NC(=O)[C@@H](NC(=O)[C@H](CO)NC(=O)[C@H](Cc1c[nH]cn1)NC(=O)[C@H](Cc1c[nH]cn1)NC(=O)[C@H](Cc1ccc(O)cc1)NC(=O)[C@H](CCCNC(=N)N)NC(=O)[C@H](CCC(=O)O)NC(=O)[C@@H](N)CC(C)C)C(C)C)C(=O)O` [compound 22] (H-LERYHHSVRSSL-OH; N-terminus and C-terminus assumed), in test [1], the IC50 is 17 nM. Further, in test [2], the “Percent Inhibition of CXCR4/CXCL12 Binding (400 nM peptide)” value was 14%.
